The values below come from patent publication US6723702B2, “Use of relaxin treat diseases related to vasoconstriction” (RAS Medical, Inc., priority 2000, dated 2004).

Assay [1] concerns conscious rats. Briefly: Acute infusion of L-NAME during chronic infusion of purified porcine RLX. The assay is classed as in vivo, rat. Here is the method:
At least 7 days after the implantation of vascular and bladder catheters, osmotic minipumps containing either porcine RLX (4 μg/hour) or vehicle (Ringer's solution) were implanted in intact, female rats (n=7 and 6 rats, respectively). Renal function and MAP were measured on day 5 of relaxin infusion (three 30-minute urine and midpoint blood collections). Next, an infusion of L-NAME (2 μg/minute, a substrate competitive inhibitor of NO synthase) was administered intravenously (i.v.) by infusion pump (Model 200, KD Scientific, Boston, Mass.). Four 1-hour urine collections with midpoint blood samples were collected for the assessment of GFR, ERPF, and ERVR during the L-NAME administration. Identical procedures were performed on additional animals chronically administered porcine RLX (n=5) or vehicle (n=5), except that ANG II (3 ng/minute) was infused rather than L-NAME. Finally, another four, age-matched control rats were administered Ringer's solution instead of either L-NAME or ANG II on day 5 of porcine RLX infusion.
MAP, GFR, ERPF, and ERVR were measured at time zero (baseline), and at 60, 120, 180, and 240 minutes after administering L-NAME and either RLX or vehicle alone. Values represent the mean±SEM. L-NAME (Nω-nitro-L-arginine methyl ester) was infused at 2 μg/minute intravenously, and relaxin was administered at 4 μg/hour by osmotic minipump subcutaneously. There were 7 and 6 rats, respectively, in the RLX and vehicle groups. An asterisk denotes p<0.05; the symbol H denotes p<0.05 for RLX vs. vehicle.

Assay [2] relates to db/db mice. As to the kind of experiment: Full thickness wound healing in db/db mice. The assay is classed as in vivo, mouse. The following applies: PDGF 5 μg/wound/day for 5 days. How it is done:
To determine whether rhRlx would improve healing in this model of impaired healing, standardized full thickness (1.5 cm×1.5 cm) wounds were made on the back of db/db mice (Jackson Laboratories, Bar Harbor, Me.). Mice were treated continuously for 21 days with rhRlx via a subcutaneously implanted Alzet pump at a dose of either 0.1 mg/kg/day or 0.2 mg/kg/day. Wound areas were measured in the course of the study. Healing is presented as wound area on day 14 relative to the original size of the wound on day 0 and is calculated as: % of original wound area=[Area on day 14/area on day 0]×100. […] Wound closure was expressed as “% of original wound area.” There were 8-20 animals per group. Wound closure was 91.4% in control group vs. 64% in the relaxin-treated group (p<0.05 by Student-Newman-Kuels test). The differences in the extent of wound healing were small among vehicle control and low dose of rhRlx treatment as well as PDGF (5 μg/wound/day for 5 days) treated mice.
At day 21-post surgery, the wounds were also excised and fixed in formalin prior to paraffin embedding. Sections from the middle of the wound were stained with Masson's trichrome and evaluated by two investigators. […] Inflammatory cell accumulation was present at the wound edges.
Neovascularization is a key component of granulation tissue formation. New blood vessel formation is stimulated by a variety of growth factors including bFGF, and VEGF. […] Immunohistochemical staining of the midsection of full thickness wounds using polyclonal antibody to von Willebrand factor VIII-related antigen was used to identify new blood vessels in the wounds.

The subject of assay [3] is Rat aortic adventitial fibroblasts. Briefly: Collagen and fibronectin expression by adventitial fibroblasts. Type of assay: cell-based. Here is the method:
Aortic adventitial fibroblasts from normal adult Sprague/Dawley rats were explanted by carefully dissecting the adventitia away from the media and culturing 1 mm^3 pieces in Dulbecco's modified Eagles Medium (DMEM), plus 10% bovine fetal calf serum. When cultures were confluent, fibroblasts were dispersed with trypsin and passaged once prior to use in experiments. Fibroblasts were seeded at 10^5 cells/cm^2 in DMEM+10% FBS in 48-well plates for experiments and assayed for collagen and fibronectin expression, as previously described (Unemori et al. (1996) J. Clin. Invest. 98:2739-2745). […] Half of the cultures were also treated simultaneously with 10 ng/ml of rhRlx. Proteins were biosynthetically labeled with ^3H-proline (25 μCi/ml) (Amersham Corp., Arlington Heights, Ill.), in the presence of ascorbate (50 μg/ml) and β-aminopropionitrile (80 μg/ml), and conditioned media collected 24 hours later. Media were electrophoresed on SDS-PAGE, and the density of collagen and fibronectin bands was determined by densitometric scanning using a digital imaging system (Alpha Innotech Corp, San Leandro, Calif.).

With `COC(=O)[C@@H](N)CCCNC(=N)N[N+](=O)[O-]` [L-NAME, Nω-nitro-L-arginine methyl ester, reference compound], the “renal vasodilation and hyperfiltration in the relaxin-treated rats” value in assay [1] (day 5 of porcine RLX infusion, L-NAME 2 μg/minute i.v.) is listed as “completely abrogated”. Further, in assay [1] (relaxin-treated compared to vehicle infused rats), the “rise in MAP and ERVR, and reduction in GFR and ERPF” value was “significantly greater”.

PDGF [reference compound]: the “differences in the extent of wound healing vs vehicle control” value in assay [2] is listed as “small”.

Take TGF-β [reference compound]: the “expression of collagens, of control levels” value in assay [3] (TGF-β (20 ng/ml)) is 484±67%. Further, the “Fibronectin expression, of control levels” value in assay [3] (TGF-β treatment) was 360±5%.
